Measured values published in US9850283B2, “Macrocyclic inhibitors of the PD-1/PD-L1 and CD80(B7-1)/PD-L1 protein/protein interactions” (BRISTOL-MYERS SQUIBB COMPANY, priority 2013, dated 2017).
Where two headings read alike, the source gives them in different places. Positions of bridges follow the written chain, without caps; N, C: chain ends. Non-standard residues stand in square brackets, D forms with d. Residues, ends and D or L forms follow the SMILES beside them. ξ: configuration not given here. 2Nal = N[C@@H](Cc1ccc2ccccc2c1)C(=O)O; NMeF = CN[C@@H](Cc1ccccc1)C(=O)O; NMeNle = CCCC[C@H](NC)C(=O)O; NMeV = CN[C@H](C(=O)O)C(C)C; dNle = CCCC[C@@H](N)C(=O)O; NMeA = CN[C@@H](C)C(=O)O; ξV = CC(C)C(N)C(=O)O; ξP = O=C(O)C1CCCN1; Sar = CNCC(=O)O

Key:
Human PD-L1/PD-1 = target: T1, Human PD-L1/PD-1 (Homo sapiens, UniProt Q9NZQ7); assay: HTRF PD-1-Ig/PD-L1-His binding assay (human PD-L1); conditions: read-out: HTRF Human PD-L1/PD-1 Binding Assay IC50
T1 construct: made in house; host or cells: HEK293T
T1 sequence (Q9NZQ7 with tags, fused parts or gaps): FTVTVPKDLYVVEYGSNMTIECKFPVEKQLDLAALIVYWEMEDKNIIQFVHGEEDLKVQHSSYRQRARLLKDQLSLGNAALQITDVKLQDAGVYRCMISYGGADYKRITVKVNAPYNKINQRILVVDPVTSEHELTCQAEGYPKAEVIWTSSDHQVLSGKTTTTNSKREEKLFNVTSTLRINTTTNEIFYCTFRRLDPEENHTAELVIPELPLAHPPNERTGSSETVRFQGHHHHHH
Outline: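 Ig- and His-fused extracellular PD-1/PD-L1 binding in BSA/Tween-20 dPBS. HTRF with Eu anti-Ig (1 nM final) and APC anti-His (20 nM final).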

Hu PD-L1/PD-1 = Hu PD-L1/PD-1 (Homo sapiens, UniProt Q9NZQ7); assay: Cell binding assay Hu PD-L1/PD-1 (Tables 11-13, cell line not given); format: cell-based
Chain of Hu PD-L1/PD-1 (Q9NZQ7 19-290): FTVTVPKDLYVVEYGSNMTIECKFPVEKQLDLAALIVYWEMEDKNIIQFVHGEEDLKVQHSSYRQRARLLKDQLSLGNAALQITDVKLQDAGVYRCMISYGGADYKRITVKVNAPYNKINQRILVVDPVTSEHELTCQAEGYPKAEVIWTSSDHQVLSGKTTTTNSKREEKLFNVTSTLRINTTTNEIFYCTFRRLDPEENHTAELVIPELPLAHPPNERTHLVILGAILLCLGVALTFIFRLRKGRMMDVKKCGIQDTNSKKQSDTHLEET
Procedure: The ability of the macrocyclic peptides of the present disclosure to bind to Jurkat, mouse B cell line (LK35.2), and a human lung adenocarcinoma cell line (L2987) was investigated. Jurkat-PD-1 Cell Binding Assay. Phycoerythrin (PE) was covalently linked to the Ig epitope tag of human PD-L1-Ig and fluorescently-labeled PD-L1-Ig was used for binding studies with a Jurkat cell line over-expressing human PD-1 (Jurkat-PD-1). […] Cells were washed 3× in dPBS. Cells were resuspended in 200 μl of dPBS and binding was measured by flow cytometry. LK35.2-hPD-L1 Cell Binding Assay. Phycoerythrin (PE) was covalently linked to the Ig eptitope tag of human PD-1-Ig and fluorescently-labeled PD-1-Ig was used for binding studies with a mouse B cell line (LK35.2) stably over-expressing human PD-L1 (LK35.2-hPD-L1). Briefly, […] LK35.2-hPD-L1 cells were pre-incubated with inhibitor for 15 m in a 30 μl volume of RPMI supplemented with 2% fetal calf serum. 20 μl of PE-labeled PD-1-Ig (2 nM final), diluted in RPMI supplemented with 2% fetal calf serum, was dispensed on top of cells and inhibitor and binding was allowed to take place for 1 h at room temperature. Cells were washed 3× in dPBS. Cells were resuspended in 200 μl of dPBS and binding was measured by flow cytometry. L2987 Cellomics Cell Binding Assay. Phycoerythrin (PE) was covalently linked to the Ig eptitope tag of human PD-1-Ig and fluorescently-labeled PD-1-Ig was used for binding studies with a human lung adenocarcinoma cell line (L2987) which naturally expresses PD-L1. […] The following day, inhibitors were diluted in serum-free DMEM and 25 μl was dispensed on top of cells. […] Samples were incubated for 1 h at 37° C. followed by 2 washes in dPBS and fixation for 30 m with 4% paraformaldehyde. Samples were further washed 2× in dPBS. Hoechst (final 1 μg/ml) was added to final wash to stain nuclei. Plates were processed using a Cellomics […]®.

[1] = Table 8, Compound No. 1 variant macrocyclic peptides
[2] = Table 13, Compound No. 71 series

Structure (SMILES) | IC50 (Human PD-L1/PD-1; [1]) [nM] | IC50 (Hu PD-L1/PD-1) [nM] | also measured
CCCC[C@H]1C(=O)N(C)[C@@H](CCCC)C(=O)N[C@@H](CC(C)C)C(=O)N[C@H](C(=O)NCC(N)=O)CSCC(=O)N[C@@H](Cc2ccccc2)C(=O)N(C)[C@@H](C)C(=O)N[C@@H](CC(N)=O)C(=O)N2CCC[C@H]2C(=O)N[C@@H](Cc2c[nH]cn2)C(=O)N[C@@H](CC(C)C)C(=O)N[C@@H](CO)C(=O)N[C@@H](Cc2c[nH]c3ccccc23)C(=O)N[C@@H](CCCNC(=N)N)C(=O)N[C@@H](Cc2c[nH]c3ccccc23)C(=O)N1C [Compound No. 4] ({CH2CO}-F[NMeA]NPHLSWRW[NMeNle][NMeNle]LCG-NH2; thioether N-14) | – | – | IC50 (Human PD-L1/PD-1; Table 6): 15 nM; IC50 (Hu PD-L1/PD-1; Table 11): 15 nM
CCCC[C@H]1C(=O)N(C)[C@@H](CCCC)C(=O)N[C@@H](CCCNC(=N)N)C(=O)N[C@H](C(=O)NCC(N)=O)CSCC(=O)N[C@@H](Cc2ccccc2)C(=O)N(C)[C@@H](C)C(=O)N[C@@H](CC(N)=O)C(=O)N2CCCC2C(=O)N[C@@H](C)C(=O)N[C@@H](CC(C)C)C(=O)N(C)CC(=O)N[C@@H](Cc2c[nH]c3ccccc23)C(=O)N[C@@H](CO)C(=O)N[C@@H](Cc2c[nH]c3ccccc23)C(=O)N1C (stereo partly shown) [Compound No. 10] ({CH2CO}-F[NMeA]N[ξP]AL[Sar]WSW[NMeNle][NMeNle]RCG-NH2; thioether N-14) | 16 | 82 | –
CCCC[C@H]1C(=O)N(C)[C@@H](CCCC)C(=O)N[C@@H](CCCNC(=N)N)C(=O)N[C@H](C(=O)NCC(N)=O)CSCC(=O)N[C@@H](Cc2ccccc2)C(=O)N(C)[C@@H](C)C(=O)N[C@@H](CC(N)=O)C(=O)N2CCCC2C(=O)N[C@@H](Cc2cnc[nH]2)C(=O)N[C@@H](CC(C)C)C(=O)N(C)[C@@H](C)C(=O)N[C@@H](Cc2c[nH]c3ccccc23)C(=O)N[C@@H](CO)C(=O)N[C@@H](Cc2c[nH]c3ccccc23)C(=O)N1C (stereo partly shown) [Compound No. 13] ({CH2CO}-F[NMeA]N[ξP]HL[NMeA]WSW[NMeNle][NMeNle]RCG-NH2; thioether N-14) | 16 | 35 | –
CCCC[C@H]1C(=O)N(C)[C@@H](CCCC)C(=O)N[C@@H](CCCNC(=N)N)C(=O)N[C@H](C(=O)NCC(N)=O)CSCC(=O)N[C@@H](Cc2ccccc2)C(=O)N(C)[C@@H](C)C(=O)N[C@@H](CC(N)=O)C(=O)N2CCCC2C(=O)N[C@@H](Cc2cnc[nH]2)C(=O)N[C@@H](CC(C)C)C(=O)N(C)CC(=O)N[C@@H](Cc2c[nH]c3ccccc23)C(=O)N[C@@H](C)C(=O)N[C@@H](Cc2c[nH]c3ccccc23)C(=O)N1C (stereo partly shown) [Compound No. 16] ({CH2CO}-F[NMeA]N[ξP]HL[Sar]WAW[NMeNle][NMeNle]RCG-NH2; thioether N-14) | 5 | 13 | –
CCCC[C@H]1C(=O)N[C@@H](CCCNC(=N)N)C(=O)N[C@H](C(=O)NCC(N)=O)CSCC(=O)N[C@@H](Cc2ccccc2)C(=O)N(C)[C@@H](C)C(=O)N[C@@H](CC(N)=O)C(=O)N2CCCC2C(=O)N[C@@H](Cc2cnc[nH]2)C(=O)N[C@@H](CC(C)C)C(=O)N(C)CC(=O)N[C@@H](Cc2c[nH]c3ccccc23)C(=O)N[C@@H](CO)C(=O)N[C@@H](Cc2c[nH]c3ccccc23)C(=O)N(C)[C@@H](C)C(=O)N1C (stereo partly shown) [Compound No. 19] ({CH2CO}-F[NMeA]N[ξP]HL[Sar]WSW[NMeA][NMeNle]RCG-NH2; thioether N-14) | 33 | 134 | –
CCCC[C@H]1C(=O)N(C)[C@@H](CCCC)C(=O)N[C@@H](C)C(=O)N[C@H](C(=O)NCC(N)=O)CSCC(=O)N[C@@H](Cc2ccccc2)C(=O)N(C)[C@@H](C)C(=O)N[C@@H](CC(N)=O)C(=O)N2CCCC2C(=O)N[C@@H](Cc2cnc[nH]2)C(=O)N[C@@H](CC(C)C)C(=O)N(C)CC(=O)N[C@@H](Cc2c[nH]c3ccccc23)C(=O)N[C@@H](CO)C(=O)N[C@@H](Cc2c[nH]c3ccccc23)C(=O)N1C (stereo partly shown) [Compound No. 22] | 3 | 28 | –
CCCC[C@H]1C(=O)N(C)[C@@H](CCCC)C(=O)N[C@@H](CCCNC(=N)N)C(=O)N[C@@H](C(=O)NCC(N)=O)CSCC(=O)N[C@@H](Cc2ccc3ccccc3c2)C(=O)N(C)[C@@H](C)C(=O)N[C@@H](CC(N)=O)C(=O)N2CCC[C@H]2C(=O)N[C@@H](Cc2cnc[nH]2)C(=O)N[C@@H](CC(C)C)C(=O)N(C)CC(=O)N[C@@H](Cc2c[nH]c3ccccc23)C(=O)N[C@@H](CO)C(=O)N[C@@H](Cc2c[nH]c3ccccc23)C(=O)N1C [Compound No. 26] ({CH2CO}-[2Nal][NMeA]NPHL[Sar]WSW[NMeNle][NMeNle]R[dC]G-NH2; thioether N-14) | 15 | 13 | –
CCCC[C@H]1C(=O)N(C)[C@@H](CCCC)C(=O)N[C@@H](CCCNC(=N)N)C(=O)N[C@H](C(=O)NCC(N)=O)CSCC(=O)N[C@@H](Cc2ccccc2)C(=O)N(C)[C@@H](C(C)C)C(=O)N[C@@H](CC(N)=O)C(=O)N2CCC[C@H]2C(=O)N[C@@H](Cc2c[nH]cn2)C(=O)N[C@@H](CC(C)C)C(=O)N(C)CC(=O)N[C@@H](Cc2c[nH]c3ccccc23)C(=O)N[C@@H](CO)C(=O)N[C@@H](Cc2c[nH]c3ccccc23)C(=O)N1C [Compound No. 41] ({CH2CO}-F[NMeV]NPHL[Sar]WSW[NMeNle][NMeNle]RCG-NH2; thioether N-14) | – | > 10000 | –
CCCC[C@H]1C(=O)N(C)[C@@H](CCCC)C(=O)N[C@@H](CCCNC(=N)N)C(=O)N[C@H](C(=O)NCC(N)=O)CSCC(=O)N[C@@H](Cc2ccccc2)C(=O)N(C)[C@@H](C)C(=O)N[C@@H](CC(N)=O)C(=O)N2CCC[C@H]2C(=O)N[C@@H](Cc2cnc[nH]2)C(=O)N[C@@H](CC(C)C)C(=O)N(C)CC(=O)N[C@@H](Cc2c[nH]c3ccccc23)C(=O)N[C@@H](CO)C(=O)N[C@@H](CC(C)C)C(=O)N1C [Compound No. 63] ({CH2CO}-F[NMeA]NPHL[Sar]WSL[NMeNle][NMeNle]RCG-NH2; thioether N-14) | – | > 10000 | –
CCCC[C@H]1NC(=O)[C@H](Cc2c[nH]c3ccccc23)NC(=O)[C@H](CO)NC(=O)[C@H](Cc2c[nH]c3ccccc23)NC(=O)CN(C)C(=O)[C@H](CC(C)C)NC(=O)[C@H](Cc2cnc[nH]2)NC(=O)[C@@H]2CCCN2C(=O)[C@H](CC(N)=O)NC(=O)[C@H](C)N(C)C(=O)[C@H](Cc2ccccc2)NC(=O)CSC[C@@H](C(=O)NCC(N)=O)NC(=O)[C@H](CCCNC(=N)N)NC(=O)[C@H](CCCC)N(C)C1=O [Compound No. 70] ({CH2CO}-F[NMeA]NPHL[Sar]WSW[dNle][NMeNle]RCG-NH2; thioether N-14) | – | > 10000 | –
CCCC[C@H]1C(=O)N(C)CC(=O)N[C@@H](CC(=O)O)C(=O)N[C@@H](C(C)C)C(=O)N(C)[C@@H](Cc2ccccc2)C(=O)N[C@@H](Cc2ccc(O)cc2)C(=O)N(C)CC(=O)N[C@@H](Cc2c[nH]c3ccccc23)C(=O)N[C@@H](Cc2ccc(O)cc2)C(=O)N[C@@H](CC(C)C)C(=O)N[C@H](C(=O)NCC(N)=O)CSCC(=O)N[C@@H](C)C(=O)N(C)[C@@H](Cc2ccccc2)C(=O)N1C [Compound No. 72] (HELM PEPTIDE1{[O=C(C[*:3])[*:2]].A.[meF].[CCCC[C@@H](C(=O)[*:2])N(C)[*:1]].[Sar].D.V.[meF].Y.[Sar].W.Y.L.C.G.[am]}$PEPTIDE1,PEPTIDE1,1:R3-14:R3$$$V2.0) | – | – | IC50 (Hu PD-L1/PD-1; [2]): > 10000 nM
CCCC[C@H]1C(=O)N(C)CC(=O)N[C@@H](CC(=O)O)C(=O)NC(C(C)C)C(=O)N(C)[C@@H](Cc2ccccc2)C(=O)N[C@@H](Cc2ccc(O)cc2)C(=O)N(C)CC(=O)N[C@@H](Cc2c[nH]c3ccccc23)C(=O)N[C@@H](C)C(=O)N[C@@H](CC(C)C)C(=O)N[C@H](C(=O)NCC(N)=O)CSCC(=O)N[C@@H](Cc2ccccc2)C(=O)N(C)[C@@H](Cc2ccccc2)C(=O)N1C (stereo partly shown) [Compound No. 86] ({CH2CO}-F[NMeF][NMeNle][Sar]D[ξV][NMeF]Y[Sar]WALCG-NH2; thioether N-13) | – | – | IC50 (Hu PD-L1/PD-1; [2]): 7250 nM
